Test results published in patent publication EP1113726B1, “USE OF NEOHESPERIDIN DIHYDROCHALCONE FOR THE MANUFACTURE OF A MEDICAMENT FOR PREVENTING OR TREATING ELEVATED BLOOD LIPID LEVEL-RELATED DISEASES” (Korea Research Institute of Bioscience and Biotechnology, priority 1998, dated 2000).

Experiments:
Assay type in all cases: in vivo
[1] = system: New Zealand White rabbits; assay: Chemical analysis of blood of cholesterol-fed rabbits; settings: rabbit serum, 1 % cholesterol diet for 6 weeks plus 1 mg/kg Lovastatin or 0.05 % neohesperidin dihydrochalcone
Protocol: (§1) 30 three-month-old New Zealand White rabbits(Yeonam Horticulture and Animal Husbandry College, Korea), each weighing about 2.5 to 2.6 kg, were raised under a condition of temperature 20±2°C, relative humidity 55±5 %, and photoperiod 12L/12D. The rabbits were divided into 3 groups and 3 groups of rabbits were fed with 3 different diets, i.e., RC4 diet(Oriental Yeast Co., Japan) containing 1 % cholesterol(Control group); 1 % cholesterol plus 1 mg/kg Lovastatin®(Merck, U.S.A.)(Lovastatin group); and 1 % cholesterol plus 0.05 % neohesperidin dihydrochalcone(Neohesperidin dihydrochalcone group), respectively. RC4 diet comprises 7.6 % moisture, 22.8 % crude protein, 2.8 % crude fat, 8.8 % crude ash, 14.4 % crude cellulose and 43.6 % soluble nitrogen-free substances. Neohesperidin dihydrochalcone was purchased from Sigma Chemical Co.(St. Louis, MO).
(§2) The rabbits were fed for 6 weeks while being allowed free access to the diets and water.
After six weeks, the rabbits were anesthetized with an intramuscular injection of ketamine (50 mg/kg) in the femoral region and sacrificed.

[2] = system: New Zealand White rabbits; assay: Analysis for fatty streak in the main artery of cholesterol-fed rabbits (Oil Red O staining); settings: 1 % cholesterol diet for 6 weeks plus 1 mg/kg Lovastatin or 0.05 % neohesperidin dihydrochalcone
Protocol: as §1, §2
The chest of each of the rabbits sacrificed in Step 2 was incised. The downward portion of the main artery from the site 1 cm above the aortic valve was cut out in a length of about 5 cm and the fat surrounding the main artery was removed. The main artery was incised in the middle along the longitudinal axis and pinned to a dish. The moist artery was photographed and, then, the staining of fatty streaks was carried out in accordance with the method of Esper, E., et al. (J. Lab. Clin. Med., 121, 103-110(1993)) as follows.
A part of the incised main artery was washed three times with anhydrous propylene glycol for 2 min and stained for 30 min. with a saturated solution of Oil Red O(ORO, Sigma Co.) dissolved in propylene glycol. Thereafter, the artery was washed twice with 85 % propylene glycol for 3 min. to remove remaining staining solution and, then washed with physiological saline. The artery was photographed and the photograph was traced. The area of stained region (fatty streak region) was determined with an image analyzer(LEICA, Q-600, Germany) and its proportion(%) to the total arterial area was calculated.

[3] = system: New Zealand White rabbits; assay: Microscopic grading of abnormal fat-containing cells in the liver of cholesterol-fed rabbits (fatty liver); settings: 1 % cholesterol diet for 6 weeks plus 1 mg/kg Lovastatin or 0.05 % neohesperidin dihydrochalcone
Protocol: as §1, §2
In order to evaluate the effects of feeding a high cholesterol diet with neohesperidin dihydrochalcone on liver tissues, the liver specimens taken from the sacrificed rabbit in Step 2 of Example 6 were treated in accordance with the procedure disclosed in Fogt F. and Nanji A., Toxicology and Applied Pharmacology, 136, 87-93, 1996; and Keegan A., et al., Journal of Hepatology 23: 591-600, 1995, and observed under a microscope to be classified into four grades, i.e., 1+(0-25%), 2+(26-50%), 3+(51-75), 4+(76-100%) based on the proportion of abnormal fat-containing cells around the central vein in the liver acinus.
Figs. 2A, 2B and 2C present the microscopic features of the livers of the rabbits administered with 1% cholesterol; 1% cholesterol plus 1 mg/kg Lovastatin®; 1% and cholesterol plus 0.05% neohesperidin dihydrochalcone, respectively.

CC[C@H](C)C(=O)O[C@H]1C[C@@H](C)C=C2C=C[C@H](C)[C@H](CC[C@@H]3C[C@@H](O)CC(=O)O3)[C@H]21 [Lovastatin, reference compound]
GOT [1]: 125 (±19) IU/1 | GPT [1]: 73 (±9) IU/l | Total-C [1]: 1210 (±263) mg/dl | γ-GTP [1]: 12.4 (±0.8) IU/l | A: Proportion(%) of fatty streak region to the total arterial area ([2]; rabbit main artery): 5 (±4) % | layer of macrophage-lipid complex on the arterial endothelium (Figs. 1B, 1C) ([2]; rabbits): no or very thin layers of macrophage-lipid complex | B: Proportion of abnormal fat-containing cells ([3]; rabbit liver, cells around the central vein, mean of grades 1+ to 4+): 3.4 (±0.5) | microscopic features of the liver (Figs. 2B, 2C) ([3]; rabbits): many cells containing excessive fat
